The values that follow come from PMC11638965, “Leveraging Dual-Ligase Recruitment to Enhance Protein Degradation via a Heterotrivalent Proteolysis Targeting Chimera” (Journal of the American Chemical Society, 2024).

The structures appear in SMILES notation.

For one test, the system named is K562 cells. Kind of test: Cell viability assay (CellTiter-Glo). The class given is cell-based, human. Particulars: Homo sapiens; WT K562, 5.12 pM to 10 uM, n = 3 (Table S4). The protocol: (§1) Cells were seeded in 96-well plates at a cell density of […], and each treatment was performed in biological triplicates. Cell viability was assessed using the CellTiter-Glo assay (CellTiter-Glo Luminescent Cell Viability Assay, Promega G7573) according to manufacturer instructions. Luminescence signal was measured on a Multilabel Plate Reader Platform Victor X3 model 2030 (PerkinElmer). Survival curves and EC50 values were determined using GraphPad Prism v.10.0.3 by fitting a nonlinear regression to the log10-transformed drug concentration and the relative viability after normalization of each data point to the mean luminescence of the lowest drug concentration.

In a further test the test system is KBM7 cells. Nature of the test: Cell viability assay (CellTiter-Glo). It is filed as cell-based, human. Particulars: Homo sapiens, KBM-7; WT KBM7, 5.12 pM to 10 uM, n = 3 (Table S4). The protocol:
as §1
On the technique in general: ATP-based viability assays read luminescence as a measure of living cells.

The target of a further test is CRBN (Homo sapiens, UniProt Q96SW2). Kind of test: Western blot dose-response degradation in HEK293 cells. It is filed as cell-based. Particulars: for fold weaker degradation of CRBN compared with aniline tethered matched pair: 31 and 32 compared with 23 and 27, respectively, DC50, HEK293 Western blot; for DC50: HEK293 cells, 6 h, Western blot, mean ± S.E.M. of three experiments, values marked b mean ± S.D. of two. Details: Western blot data for BET, CRBN and VHL protein levels; endogenous in cells; host or cells: HEK293 (ATCC). As for the experimental part: (§2) HEK293 cells were obtained from ATCC. HEK293 was cultured in DMEM supplemented with 10% (v/v) fetal bovine serum (FBS), 1% […] and 1% (v/v) penicillin/streptomycin (pen/strep) at 37 °C, 5% CO2, and 95% humidity.
Chain of CRBN (Q96SW2 whole entry): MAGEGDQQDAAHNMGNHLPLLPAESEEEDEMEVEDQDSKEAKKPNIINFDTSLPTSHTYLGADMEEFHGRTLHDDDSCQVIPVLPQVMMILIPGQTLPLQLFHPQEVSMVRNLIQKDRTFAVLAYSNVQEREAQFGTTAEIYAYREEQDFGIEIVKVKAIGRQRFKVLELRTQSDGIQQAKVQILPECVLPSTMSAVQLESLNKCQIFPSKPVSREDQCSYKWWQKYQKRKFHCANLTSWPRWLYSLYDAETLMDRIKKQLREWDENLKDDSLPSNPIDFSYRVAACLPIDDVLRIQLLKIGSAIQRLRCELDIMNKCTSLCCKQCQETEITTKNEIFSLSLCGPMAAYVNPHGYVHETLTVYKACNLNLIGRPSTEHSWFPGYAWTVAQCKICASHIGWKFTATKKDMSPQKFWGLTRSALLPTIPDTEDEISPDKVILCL
(§3) HEK293 cells were plated at a density of 5 × 10^5 cells per well of a six well plate a day prior to initiation of the experiment. Compounds were dissolved to a 10 mM concentrated stock solution in DMSO from which the compounds were further diluted to a working concentration range of 1 μM to 100 pM in DMEM and was subsequently added to cells at the initiation of the experiment. An additional vehicle control was added to cells alongside compound treatments. Cells were left to incubate with compound for 6 h at 37 °C, 5% CO2, and 95% humidity. Cells were then subsequently washed twice with PBS before being harvested in RIPA buffer supplemented with protease inhibitor cocktail and Benzonase Nuclease before being store at −20 °C.
(§4) Protein concentration was determined using the BCA assay. Samples were then prepared in LDS buffer containing 5% 1 M DTT and subsequently loaded onto NuPAGE 4–12% Bis-Tris Midi gels, followed by the transfer of the proteins onto nitrocellulose membranes. The membranes were blocked for 1 h prior to incubation with the primary antibodies using 5% Milk TBST. Membranes were incubated at 4 °C in either BRD4(Ab128874), BRD3(Ab50818), BRD2(Ab139690), VHL(CST#68547) and CRBN(CST#71810) primary antibody overnight. Following overnight incubation, the membranes were incubated with complementary IRDye 800CW secondary antibody and a hFAB Rhodamine Anti-Tubulin Primary Antibody (loading control) for 1 h and then imaged with a Bio-Rad imager. All Western blots were analyzed for band intensities using Image Lab (Bio-Rad). The data extracted from these blots were then plotted and analyzed using Prism (v. 10.2.2, GraphPad). Linear regression curve fitting was used to calculate pDC50 values. The standard deviation of the pDC50 was calculated for all compounds that had two independent repeats and the standard error of the mean calculated for all compounds that had three independent repeats. All Western blotting figures were developed in Adobe illustrator.
In general terms: Immunoblotting shows a protein as a band on a membrane.

The next test has as its target T1, BRD4^Long (Homo sapiens, UniProt O60885).
T1 construct: Western blot data for BET, CRBN and VHL protein levels; endogenous in cells; host or cells: HEK293 (ATCC)
The test is described as above. It is filed as cell-based. Particulars: HEK293 cells, 6 h, Western blot; mean ± S.E.M. of three experiments, values marked b mean ± S.D. of two. The protocol: as §2, §3, §4

For a further test, the target named is T2, BRD2 (Homo sapiens, UniProt P25440).
T2 construct: HiBiT, is appended to the N-terminus of endogenous BRD2, BRD3, and BRD4; endogenous in cells
T2 sequence (P25440 whole entry): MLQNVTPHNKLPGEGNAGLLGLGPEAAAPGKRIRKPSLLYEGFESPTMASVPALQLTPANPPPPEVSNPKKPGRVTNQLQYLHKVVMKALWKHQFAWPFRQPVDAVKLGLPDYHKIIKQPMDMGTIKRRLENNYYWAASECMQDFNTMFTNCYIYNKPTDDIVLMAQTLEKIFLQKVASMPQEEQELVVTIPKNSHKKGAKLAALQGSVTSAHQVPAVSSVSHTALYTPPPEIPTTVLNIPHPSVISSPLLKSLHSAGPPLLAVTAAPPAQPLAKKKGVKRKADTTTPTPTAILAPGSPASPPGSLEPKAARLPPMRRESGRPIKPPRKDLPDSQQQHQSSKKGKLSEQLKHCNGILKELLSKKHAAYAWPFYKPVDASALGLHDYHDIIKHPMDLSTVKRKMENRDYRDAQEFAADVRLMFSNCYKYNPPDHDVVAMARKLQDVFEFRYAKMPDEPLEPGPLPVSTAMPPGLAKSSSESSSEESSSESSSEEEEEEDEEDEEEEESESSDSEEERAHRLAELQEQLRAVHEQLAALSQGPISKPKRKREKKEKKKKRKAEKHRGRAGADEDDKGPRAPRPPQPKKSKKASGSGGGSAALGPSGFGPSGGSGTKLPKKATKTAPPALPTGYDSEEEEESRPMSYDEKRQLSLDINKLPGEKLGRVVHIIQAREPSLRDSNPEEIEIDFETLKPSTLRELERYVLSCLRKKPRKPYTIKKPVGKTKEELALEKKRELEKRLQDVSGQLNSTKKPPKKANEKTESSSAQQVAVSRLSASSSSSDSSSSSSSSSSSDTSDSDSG
Described as above. The class given is cell-based. Particulars: 6 h; for DC50: mean ± S.E.M. of three experiments, values marked b mean ± S.D. of two. The protocol:
as §2, §3, §4

The next test concerns the target T3, BRD4^Short (Homo sapiens, UniProt O60885).
T3 construct: Western blot data for BET, CRBN and VHL protein levels; endogenous in cells; host or cells: HEK293 (ATCC)
Described as above. The class given is cell-based. Particulars: 6 h, mean ± S.E.M. of three experiments, values marked b mean ± S.D. of two. As for the experimental part: as §2, §3, §4

For the next test, the target named is T4, BRD3 (Homo sapiens, UniProt Q15059).
T4 construct: HiBiT, is appended to the N-terminus of endogenous BRD2, BRD3, and BRD4; endogenous in cells
T4 sequence (Q15059 whole entry): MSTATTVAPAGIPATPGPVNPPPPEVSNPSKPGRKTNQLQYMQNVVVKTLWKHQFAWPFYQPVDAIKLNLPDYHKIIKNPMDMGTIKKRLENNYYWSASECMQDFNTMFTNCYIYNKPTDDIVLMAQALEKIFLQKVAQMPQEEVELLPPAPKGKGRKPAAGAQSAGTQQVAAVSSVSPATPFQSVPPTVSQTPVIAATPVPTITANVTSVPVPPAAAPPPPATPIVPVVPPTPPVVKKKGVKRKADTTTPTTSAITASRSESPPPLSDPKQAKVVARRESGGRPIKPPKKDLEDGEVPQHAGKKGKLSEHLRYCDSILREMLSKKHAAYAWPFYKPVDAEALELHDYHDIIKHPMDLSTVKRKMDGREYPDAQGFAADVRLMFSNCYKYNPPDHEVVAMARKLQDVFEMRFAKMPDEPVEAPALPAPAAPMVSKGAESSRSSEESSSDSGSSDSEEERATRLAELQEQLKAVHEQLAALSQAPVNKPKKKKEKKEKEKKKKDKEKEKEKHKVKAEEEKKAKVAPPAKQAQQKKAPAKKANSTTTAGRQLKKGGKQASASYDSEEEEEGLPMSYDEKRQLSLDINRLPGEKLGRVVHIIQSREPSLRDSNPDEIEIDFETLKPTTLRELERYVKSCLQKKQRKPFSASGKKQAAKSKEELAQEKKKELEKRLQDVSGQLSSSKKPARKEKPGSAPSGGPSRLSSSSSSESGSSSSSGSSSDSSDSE
The test is described as above. It is filed as cell-based. Particulars: 6 h, mean ± S.E.M. of three experiments, values marked b mean ± S.D. of two. The protocol: as §2, §3, §4

Another test relates to RKO CRBN/VHL dKO cells. Nature of the test: Cell viability assay (CellTiter-Glo). Particulars: Homo sapiens, 72 h, 316 pM to 10 μM, 3 days, n = 3 (Figures 5 and 8C, Table S5); read-out: EC50 RKO CRBN/VHL dKO. The class given is cell-based, human. The protocol: (§5) RKO WT, VHL KO, CRBN KO and CRBN/VHL dKO cells were cultured in Dulbecco’s modified Eagle’s medium supplemented with 10% FCS and 1% penicillin–streptomycin. RKO CRBN KO and VHL KO were generated previously.[45] RKO CRBN/VHL dKO cells were generated by transiently expressing pSpCas9(BB)-2A-GFP (PX458) (Addgene 48138) loaded with a short guide RNA (sgRNA) targeting VHL (Fwd: […], Rev: […]) in RKO CRBN KO cells. Clones were single cell seeded and checked for VHL and CRBN double deletion via Western blot or PCR on genomic DNA (gDNA).
(§6) Cells were seeded in 96-well plates at a cell density of 3750 cells per well and treated for 3 days with DMSO or drug at ten √10 serial diluted concentrations. Starting concentration for all drugs was 10 μM, and each treatment was performed in biological triplicates. Cell viability was assessed using the CellTiter-Glo assay (CellTiter-Glo Luminescent Cell Viability Assay, Promega G7573) according to manufacturer instructions. Luminescence signal was measured on a Multilabel Plate Reader Platform Victor X3 model 2030 (PerkinElmer). Survival curves and EC50 values were determined using GraphPad Prism v.10.0.3 by fitting a nonlinear regression to the log10-transformed drug concentration and the relative viability after normalization of each data point to the mean luminescence of the lowest drug concentration.

The subject of another test is RKO VHL KO cells. Kind of test: Cell viability assay (CellTiter-Glo). It is filed as cell-based, human. Particulars: 316 pM to 10 μM, 3 days, n = 3 (Figures 5 and 8C, Table S5). As for the experimental part:
as §5, §6

What is called DC50 is the concentration giving 50% degradation. Read a high DC50 as degradation only at high concentration. As for `Cc1ncsc1-c1ccc(CNC(=O)[C@@H]2C[C@@H](O)CN2C(=O)[C@@H](NC(=O)COCC(C)(COCCOCCOCCOC(=O)C[C@@H]2N=C(c3ccc(Cl)cc3)c3c(sc(C)c3C)-n3c(C)nnc32)COCCOCCOCCN2CCN(c3cccc4c3C(=O)N(C3CCC(=O)NC3=O)C4=O)CC2)C(C)(C)C)cc1` (mixture of isomers) [AB3029 (31), (17S)-11-((2-(2-(2-(4-(2-(2,6-dioxopiperidin-3-yl)-1,3-dioxoisoindolin-4-yl)piperazin-1-yl)ethoxy)ethoxy)ethoxy)methyl)-17-((2S,4R)-4-hydroxy-2-((4-(4-methylthiazol-5-yl)benzyl)carbamoyl)pyrrolidine-1-carbonyl)-11,18,18-trimethyl-15-oxo-3,6,9,13-tetraoxa-16-azanonadecyl 2-((S)-4-(4-chlorophenyl)-2,3,9-trimethyl-6H-thieno[3,2-f][1,2,4]triazolo[4,3-a][1,4]diazepin-6-yl)acetate], the figures for the EC50 in the test with K562 cells and in the test with KBM7 cells were 494 nM and 294 nM, respectively. Also, the “fold weaker degradation of CRBN compared with aniline tethered matched pair” value at CRBN was found to be 2.9 fold. For the same compound, the DC50 at CRBN stood at 580 ± 240 nM; on BRD4^Long, 14 ± 3.9 nM; on BRD2 it was 52 ± 9.4 nM; on BRD4^Short, 15 ± 2.4 nM; on BRD3 it was 14 ± 2.9 nM.

Take `Cc1ncsc1-c1ccc(CNC(=O)[C@@H]2C[C@@H](O)CN2C(=O)[C@@H](NC(=O)COCC(C)(COCCOCCOCCOC(=O)C[C@@H]2N=C(c3ccc(Cl)cc3)c3c(sc(C)c3C)-n3c(C)nnc32)COCCOCCOCCN2CCN(c3cc4c(cc3F)C(=O)N(C3CCC(=O)NC3=O)C4=O)CC2)C(C)(C)C)cc1` (mixture of isomers) [AB3030 (32), (17S)-11-((2-(2-(2-(4-(2-(2,6-dioxopiperidin-3-yl)-6-fluoro-1,3-dioxoisoindolin-5-yl)piperazin-1-yl)ethoxy)ethoxy)ethoxy)methyl)-17-((2S,4R)-4-hydroxy-2-((4-(4-methylthiazol-5-yl)benzyl)carbamoyl)pyrrolidine-1-carbonyl)-11,18,18-trimethyl-15-oxo-3,6,9,13-tetraoxa-16-azanonadecyl 2-((S)-4-(4-chlorophenyl)-2,3,9-trimethyl-6H-thieno[3,2-f][1,2,4]triazolo[4,3-a][1,4]diazepin-6-yl)acetate]: the EC50 is 192 nM in the test on K562 cells and 78 nM in the test on KBM7 cells. Moreover, the “fold weaker degradation of CRBN compared with aniline tethered matched pair” value on CRBN is given as 3.7 fold. Further, the DC50 was 730 ± 270 nM at CRBN; 7.3 ± 2.1 nM at BRD4^Long; 28 ± 7.3 nM on BRD2; 9.4 ± 1.9 nM at BRD4^Short; 6.4 ± 1.9 nM at BRD3.

`Cc1ncsc1-c1ccc(CNC(=O)[C@@H]2C[C@@H](O)CN2C(=O)[C@@H](NC(=O)COCC(C)(COCCOCCOCCNc2cccc3c2C(=O)N(C2CCC(=O)NC2=O)C3=O)COCCOCCOCCOC(=O)C[C@@H]2N=C(c3ccc(Cl)cc3)c3c(sc(C)c3C)-n3c(C)nnc32)C(C)(C)C)cc1` (mixture of isomers) [AB3062 (23), (17S)-11-((2-(2-(2-((2-(2,6-dioxopiperidin-3-yl)-1,3-dioxoisoindolin-4-yl)amino)ethoxy)ethoxy)ethoxy)methyl)-17-((2S,4R)-4-hydroxy-2-((4-(4-methylthiazol-5-yl)benzyl)carbamoyl)pyrrolidine-1-carbonyl)-11,18,18-trimethyl-15-oxo-3,6,9,13-tetraoxa-16-azanonadecyl 2-((S)-4-(4-chlorophenyl)-2,3,9-trimethyl-6H-thieno[3,2-f][1,2,4]triazolo[4,3-a][1,4]diazepin-6-yl)acetate]: the EC50 is 212 nM in the test on K562 cells and 104 nM in the test with KBM7 cells. For the same compound, the DC50 on CRBN amounted to 200 ± 110 nM; on BRD4^Long, 2.5 ± 0.5 nM; on BRD2, 58 ± 16 nM; at BRD4^Short it was 11 ± 3.7 nM; on BRD3, 11 ± 4.6 nM.

For the compound `Cc1ncsc1-c1ccc(CNC(=O)[C@@H]2C[C@@H](O)CN2C(=O)[C@@H](NC(=O)COCC(C)(COCCOCCOCCNc2cccc3c2C(=O)N(C2CCC(=O)NC2=O)C3=O)COCCOCCOC(=O)C[C@@H]2N=C(c3ccc(Cl)cc3)c3c(sc(C)c3C)-n3c(C)nnc32)C(C)(C)C)cc1` (mixture of isomers) [AB3064 (25), (14S)-8-((2-(2-(2-((2-(2,6-dioxopiperidin-3-yl)-1,3-dioxoisoindolin-4-yl)amino)ethoxy)ethoxy)ethoxy)methyl)-14-((2S,4R)-4-hydroxy-2-((4-(4-methylthiazol-5-yl)benzyl)carbamoyl)pyrrolidine-1-carbonyl)-8,15,15-trimethyl-12-oxo-3,6,10-trioxa-13-azahexadecyl 2-((S)-4-(4-chlorophenyl)-2,3,9-trimethyl-6H-thieno[3,2-f][1,2,4]triazolo[4,3-a][1,4]diazepin-6-yl)acetate], the EC50 is 369 nM in the test on K562 cells and 168 nM with KBM7 cells. Besides, the DC50 was 480 ± 370 nM on CRBN; 12 ± 2.4 nM on BRD4^Long; 75 ± 20 nM at BRD2; 18 ± 3.3 nM at BRD4^Short; 28 ± 0.8 nM on BRD3.

One may read the Dmax as the greatest extent of degradation seen. As to `Cc1ncsc1-c1ccc(CNC(=O)[C@@H]2C[C@@H](O)CN2C(=O)[C@@H](NC(=O)COCC(COCCOCCOCCNc2cc3c(cc2F)C(=O)N(C2CCC(=O)NC2=O)C3=O)(COCCOCCOCCOC(=O)C[C@@H]2N=C(c3ccc(Cl)cc3)c3c(sc(C)c3C)-n3c(C)nnc32)COCCOCCOCCOC(=O)C[C@@H]2N=C(c3ccc(Cl)cc3)c3c(sc(C)c3C)-n3c(C)nnc32)C(C)(C)C)cc1` (mixture of isomers) [AB3124 (86)], the DC50 on CRBN stood at 113 ± 3.2 nM; at BRD4^Long, 2.2 ± 0.1 nM; at BRD2, 1 ± 0.2 nM; at BRD4^Short, 2.9 ± 0.3 nM; on BRD3, 3.5 ± 0.3 nM. Besides, the Dmax at BRD2 was approximately 80%. In addition, the “onset of the hook effect, BRD2” value on BRD2 stood at 1 µM. Moreover, the EC50 amounted to 16 nM with RKO CRBN/VHL dKO cells; 34 nM in the test with RKO VHL KO cells (listed as 86); 62 nM in the test with RKO VHL KO cells (Homo sapiens, 72 h).
